# Assay results taken from patent US6521215B2, “Compositions and methods for tooth treatment” (priority 1999, dated 2003).
# B1: papain (protein, UniProt P00784 134-345, looked up)
# Papain: IPEYVDWRQKGAVTPVKNQGSCGSCWAFSAVVTIEGIIKIRTGNLNEYSEQELLDCDRRSYGCNGGYPWSALQLVAQYGIHYRNTYPYEGVQRYCRSREKGPYAAKTDGVRQVQPYNEGALLYSIANQPVSVVLEAAGKDFQLYRGGIFVGPCGNKVDHAVAAVGYGPNYILIKNSWGTGWGENGYIRIKRGTGNSYGVCGLYTSSFYPVKN
# modifications: crude preparation
# notes: Protease slurry prepared by mixing papain (papaya, crude, Type III) with distilled water
# Assays:
# [1] = Attin et al., 1997, cited from earlier work
# [2] = enamel exposed to 10% carbamide peroxide; McCracken and Haywood, 1996; cited from earlier work
# [3] = scanning electron microscope, 5000× magnification
# [4] = Protease enhanced tooth whitening, shade comparison of left and right halves of the enamel surface in vitro; design: species or system human; conditions: protease slurry (papain in distilled water) alone vs untreated half of tooth
# Experimental: In this experiment, specimens were prepared in vitro by dividing the enamel surface of the teeth into left and right halves with a visible light cured polymer. This allowed a shade comparison of one side to the other. Specimens were divided into two groups. In both groups, one side of the teeth received an application of protease. Protease slurry was prepared by mixing papain (papaya, crude, Type III) with distilled water and applied via a syringe tip applicator. One group of specimens was then immersed in 30% hydrogen peroxide solution. The other group received no further treatment. Thus, in the first group, one-half of the tooth was first treated with papain and then with hydrogen peroxide, and the second half of the tooth was treated with only hydrogen peroxide. In the other group, one-half of the tooth was treated with papain and the second half of the tooth was untreated.
molecule,measurement,setting,value
F [fluoride],hardness of bleached enamel specimens after application,[1]; high concentration fluoride application,restore hardness
NC(N)=O.OO [carbamide peroxide],enamel microhardness,[1]; 10% carbamide peroxide (Opalescence®),significantly decreased
same,amount of calcium lost from enamel (average),[2],1.06 micrograms/mm^2
OO [hydrogen peroxide],microscopic pitting of the enamel surface,[3],not seen
B1,whitening effect (change in shade) of treated tooth side,[4],will remove stains and “whiten” a tooth
